Measured values reported in patent publication US4742049A, “Semisynthetic erythromycin antibiotics” (Abbott Laboratories, priority 1986, dated 1988).
≈ marks a conversion by molar mass, not a printed value. Like-named read-outs stand apart in the source and are kept apart here.

Legend:
Providencia stuartii = experiment: antimicrobial spectrum, agar dilution MIC; assay type: cell-based; conditions: strain CMX 640, BHI agar, 20-24 hours
Procedure: (§1) Twelve petri dishes containing successive aqueous dilutions of the test compound mixed with 10 ml of sterilized Brain Heart Infusion agar (Difco 0418-01-5) are prepared. Each plate is inoculated with 1:100 (or 1:10 for slow-growing strains, primarily Micrococcus and Streptococcus) dilutions of up to 32 different microorganisms, using a Steers replicator block. The inoculated plates are incubated at 35°-37° C. for 20-24 hours. In addition, a control plate, using BHI agar containing no test compound, is prepared and incubated at the beginning and end of each test.
(§2) An additional plate containing a compound having known susceptibility patterns for the organisms being tested and belonging to the same antibiotic class as the test compound is also prepared and incubated as a further control, as well as to provide test-to-test comparability.
(§3) After incubation, each disk is read. The MIC is defined as the lowest concentration of drug yielding no growth, a slight haze, or sparsely isolated colonies on the inoculum spot as compared to the growth control.

Pseudomonas aeruginosa = experiment: antimicrobial spectrum, agar dilution MIC; assay type: cell-based; conditions: Pseudomonas aeruginosa, BHI agar, 20-24 hours
Procedure: as §1, §2, §3

Staph. aureus = experiment: antimicrobial spectrum, agar dilution MIC; assay type: cell-based; conditions: Staphylococcus aureus, BHI agar, 20-24 hours
Procedure: as §1, §2, §3

Staph. epidermidis = experiment: antimicrobial spectrum, agar dilution MIC; assay type: cell-based; conditions: Staphylococcus epidermidis, BHI agar, 20-24 hours
Procedure: as §1, §2, §3

Strep. agalactiae = experiment: antimicrobial spectrum, agar dilution MIC; assay type: cell-based; conditions: Streptococcus agalactiae, strain CMX 508; BHI agar, 20-24 hours
Procedure: as §1, §2, §3

Strep. bovis = experiment: antimicrobial spectrum, agar dilution MIC; assay type: cell-based; conditions: Streptococcus equinus, strain A5169; BHI agar, 20-24 hours
Procedure: as §1, §2, §3

Strep. faecium = experiment: antimicrobial spectrum, agar dilution MIC; assay type: cell-based; conditions: Enterococcus faecium, ATCC8043, strain ATCC 8043; BHI agar, 20-24 hours
Procedure: as §1, §2, §3

Strep. pyogenes = experiment: antimicrobial spectrum, agar dilution MIC; assay type: cell-based; conditions: Streptococcus pyogenes, BHI agar, 20-24 hours
Procedure: as §1, §2, §3

E. coli = experiment: antimicrobial spectrum, agar dilution MIC; assay type: cell-based; conditions: Escherichia coli, BHI agar, 20-24 hours
Micrococcus luteus = experiment: antimicrobial spectrum, agar dilution MIC; assay type: cell-based; conditions: 20-24 hours
Lactobacillus Casei = experiment: antimicrobial spectrum, agar dilution MIC; assay type: cell-based; conditions: Lacticaseibacillus casei, ATCC7469, strain ATCC 7469; BHI agar, 20-24 hours
Ent. aerogenes = experiment: antimicrobial spectrum, agar dilution MIC; assay type: cell-based; conditions: Klebsiella aerogenes, BHI agar, 20-24 hours
Klebsiella pneumoniae = experiment: antimicrobial spectrum, agar dilution MIC; assay type: cell-based; conditions: strain 8045, BHI agar, 20-24 hours
Pseudomonas cepacia = experiment: antimicrobial spectrum, agar dilution MIC; assay type: cell-based; conditions: Burkholderia cepacia, strain 2961; BHI agar, 20-24 hours; read-out: MIC
Procedure: (§4) Erythromycin A was used for this purpose.
(§5) After incubation, each disk is read.

Acinetobacter SP = experiment: antimicrobial spectrum, agar dilution MIC; assay type: cell-based; conditions: strain CMX 669, BHI agar, 20-24 hours
[1] = tested on: gut contractions (stomach, duodenum, jejunum); conditions: dog, in vivo, iv, 4 mg/kg
Procedure: Compounds of this invention have been tested for gastrointestinal stimulating activity in a dog model at 4 mg/kg intravenously. Contractions in the gut were recorded with surgically implanted strain gauges. […] Ratios were calculated for the stomach, duodenum and jejunum, and a final arithmetic mean index was calculated and reported in Table 1.

Haemophilus influenzae = experiment: MIC against strains of Haemophilus influenzae; assay type: cell-based; conditions: Haemophilus influenzae, read-out: MIC
Procedure: as §4, §5
In the manner of Example 23, the efficacy of compounds of this invention were tested against numerous strains of Haemophilus influenzae.

gastointestinal motility = experiment: gastrointestinal motility in sensitive animal models (general statement); assay type: in vivo; conditions: compared with parent erythromycin compound

CC[C@H]1OC(=O)[C@H](C)[C@@H](O[C@H]2C[C@@](C)(OC)[C@@H](O)[C@H](C)O2)[C@H](C)[C@@H](O[C@@H]2O[C@H](C)C[C@H](N(C)C)[C@H]2O)[C@](C)(OC)C[C@@H](C)C(=O)[C@H](C)[C@H]2N(C)C(=O)O[C@]12C [Example 4, 11-deoxy-6-O-methyl erythromycin A 11,12-(N-methyl)cyclic carbamate]
MIC (Providencia stuartii): > 100 µg/mL | MIC (Pseudomonas aeruginosa; strain 5007): 100 µg/mL (≈ 127 µM) | MIC (Pseudomonas aeruginosa; strain BMH10): 50 µg/mL (≈ 63.5 µM) | MIC (Pseudomonas aeruginosa; strain K799/61, read-out: MIC): 0.78 µg/mL (≈ 0.991 µM) | MIC (Pseudomonas aeruginosa; strain K799/WT): 100 µg/mL (≈ 127 µM) | MIC (Staph. aureus; ATCC6538P, strain ATCC 6538P): 0.1 µg/mL (≈ 0.127 µM) | MIC (Staph. aureus; strain 45): 0.1 µg/mL (≈ 0.127 µM) | MIC (Staph. aureus; strain 45 RAR 2): 0.2 µg/mL (≈ 0.254 µM) | MIC (Staph. aureus; strain A5177): 0.39 µg/mL (≈ 0.496 µM) | MIC (Staph. aureus; strain CMX 686B): 0.1 µg/mL (≈ 0.127 µM) | MIC (Staph. epidermidis; strain 3519): 0.2 µg/mL (≈ 0.254 µM) | MIC (Staph. epidermidis; strain 3519 RARI): 0.2 µg/mL (≈ 0.254 µM) | MIC (Strep. agalactiae): 0.02 µg/mL (≈ 0.0254 µM) | MIC (Strep. bovis): 0.02 µg/mL (≈ 0.0254 µM) | MIC (Strep. faecium): 0.05 µg/mL (≈ 0.0635 µM) | MIC (Strep. pyogenes; strain 930): > 100 µg/mL | MIC (Strep. pyogenes; strain EES61): 0.01 µg/mL (≈ 0.0127 µM) | MIC (E. coli; strain DC-2): 25 µg/mL (≈ 31.8 µM) | MIC (E. coli; strain H560): 12.5 µg/mL (≈ 15.9 µM) | MIC (E. coli; strain JUHL): 25 µg/mL (≈ 31.8 µM) | MIC (E. coli; strain KNK 437): 50 µg/mL (≈ 63.5 µM) | MIC (E. coli; strain SS): 0.1 µg/mL (≈ 0.127 µM) | MIC (Micrococcus luteus; strain 4698, BHI agar): 0.05 µg/mL (≈ 0.0635 µM) | MIC (Micrococcus luteus; strain 9341, BHI agar): 0.01 µg/mL (≈ 0.0127 µM) | MIC (Lactobacillus Casei): 0.01 µg/mL (≈ 0.0127 µM) | MIC (Ent. aerogenes; ATCC10348, strain ATCC 10348): 50 µg/mL (≈ 63.5 µM) | MIC (Klebsiella pneumoniae): 50 µg/mL (≈ 63.5 µM) | MIC (Pseudomonas cepacia): 100 µg/mL (≈ 127 µM) | MIC (Acinetobacter SP): 12.5 µg/mL (≈ 15.9 µM) | Gastrointestinal Motility Index [1]: 1.27

CC[C@H]1OC(=O)[C@H](C)[C@@H](O[C@H]2C[C@@](C)(OC)[C@@H](O)[C@H](C)O2)[C@H](C)[C@@H](O[C@@H]2O[C@H](C)C[C@H](N(C)C)[C@H]2O)[C@](C)(OC)C[C@@H](C)C(=O)[C@H](C)[C@H]2N(C3CC3)C(=O)O[C@]12C [Example 5, 11-deoxy-6-O-methyl erythromycin A 11,12-(N-cyclopropyl)cyclic carbamate]
MIC (Providencia stuartii): > 100 µg/mL | MIC (Pseudomonas aeruginosa; strain 5007): > 100 µg/mL | MIC (Pseudomonas aeruginosa; strain BMH10): 100 µg/mL (≈ 123 µM) | MIC (Pseudomonas aeruginosa; strain K799/61): 6.2 µg/mL (≈ 7.63 µM) | MIC (Pseudomonas aeruginosa; strain K799/WT): > 100 µg/mL | MIC (Staph. aureus; ATCC6538P, strain ATCC 6538P): 0.39 µg/mL (≈ 0.48 µM) | MIC (Staph. aureus; strain 45): 0.2 µg/mL (≈ 0.246 µM) | MIC (Staph. aureus; strain 45 RAR 2): 0.39 µg/mL (≈ 0.48 µM) | MIC (Staph. aureus; strain A5177): 1.56 µg/mL (≈ 1.92 µM) | MIC (Staph. aureus; strain CMX 686B): 0.39 µg/mL (≈ 0.48 µM) | MIC (Staph. epidermidis; strain 3519): 0.39 µg/mL (≈ 0.48 µM) | MIC (Staph. epidermidis; strain 3519 RARI): 0.39 µg/mL (≈ 0.48 µM) | MIC (Strep. agalactiae): 0.02 µg/mL (≈ 0.0246 µM) | MIC (Strep. bovis): 0.02 µg/mL (≈ 0.0246 µM) | MIC (Strep. faecium): 0.1 µg/mL (≈ 0.123 µM) | MIC (Strep. pyogenes; strain 930): > 100 µg/mL | MIC (Strep. pyogenes; strain EES61): 0.02 µg/mL (≈ 0.0246 µM) | MIC (E. coli; strain DC-2): 100 µg/mL (≈ 123 µM) | MIC (E. coli; strain H560): 25 µg/mL (≈ 30.7 µM) | MIC (E. coli; strain JUHL): 50 µg/mL (≈ 61.5 µM) | MIC (E. coli; strain KNK 437): 100 µg/mL (≈ 123 µM) | MIC (E. coli; strain SS): 0.2 µg/mL (≈ 0.246 µM) | MIC (Micrococcus luteus; strain 4698, BHI agar): 0.2 µg/mL (≈ 0.246 µM) | MIC (Micrococcus luteus; strain 9341, BHI agar): 0.05 µg/mL (≈ 0.0615 µM) | MIC (Lactobacillus Casei): 0.05 µg/mL (≈ 0.0615 µM) | MIC (Ent. aerogenes; ATCC13048, strain ATCC 13048, read-out: MIC): 100 µg/mL (≈ 123 µM) | MIC (Klebsiella pneumoniae): 100 µg/mL (≈ 123 µM) | MIC (Pseudomonas cepacia): > 100 µg/mL | MIC (Acinetobacter SP): 25 µg/mL (≈ 30.7 µM)

CC[C@H]1OC(=O)[C@H](C)[C@@H](O[C@H]2C[C@@](C)(OC)[C@@H](O)[C@H](C)O2)[C@H](C)[C@@H](O[C@@H]2O[C@H](C)C[C@H](N(C)C)[C@H]2O)[C@](C)(OC)C[C@@H](C)C(=O)[C@H](C)[C@H]2N(CCN(C)C)C(=O)O[C@]12C [Example 9, 11-deoxy-6-O-methyl erythromycin A 11,12-[N-(2-dimethylamino)ethyl]cyclic carbamate]
MIC (Haemophilus influenzae; ATCC9006, strain ATCC 9006): 0.25 µg/mL (≈ 0.296 µM) | MIC (Haemophilus influenzae; ATCC9795, strain ATCC 9795): 0.25 µg/mL (≈ 0.296 µM) | MIC (Haemophilus influenzae; ATCC10211, strain ATCC 10211): 0.5 µg/mL (≈ 0.592 µM) | MIC (Haemophilus influenzae; ATCC19418, strain ATCC 19418): 0.5 µg/mL (≈ 0.592 µM) | MIC (Haemophilus influenzae; strain 504): 1 µg/mL (≈ 1.18 µM) | MIC (Haemophilus influenzae; strain 519A): 0.5 µg/mL (≈ 0.592 µM) | MIC (Haemophilus influenzae; strain 566A): 0.5 µg/mL (≈ 0.592 µM) | MIC (Haemophilus influenzae; strain 588A): 0.25 µg/mL (≈ 0.296 µM) | MIC (Haemophilus influenzae; strain 632A): 0.5 µg/mL (≈ 0.592 µM) | MIC (Haemophilus influenzae; strain 667A): 0.25 µg/mL (≈ 0.296 µM) | MIC (Haemophilus influenzae; strain 747C): 0.25 µg/mL (≈ 0.296 µM) | MIC (Haemophilus influenzae; strain 751): 0.25 µg/mL (≈ 0.296 µM) | MIC (Haemophilus influenzae; strain 1177): 0.5 µg/mL (≈ 0.592 µM) | MIC (Haemophilus influenzae; strain 1435): 0.12 µg/mL (≈ 0.142 µM) | MIC (Haemophilus influenzae; strain 5036B): 0.5 µg/mL (≈ 0.592 µM) | MIC (Haemophilus influenzae; strain DILL AMP R): 0.25 µg/mL (≈ 0.296 µM) | MIC (Haemophilus influenzae; strain SOL AMP R): 0.25 µg/mL (≈ 0.296 µM) | MIC (Haemophilus influenzae; strain SPK AMP R): 0.25 µg/mL (≈ 0.296 µM) | Gastrointestinal Motility Index [1]: .013 | gastointestinal motility and associated side-effects (gastointestinal motility): much less gastointestinal motility and associated side-effects than the parent erythromycin compound
